How the values were obtained:
IgA = IgA measurement in cecal contents (Rat IgA ELISA Kit); format: in vivo, SD rats; conditions: 5.5% in NF diet, 8 weeks; for IgA amount of cecal contents: compared to the NF group (p<0.01), FIG. 2
Experimental: (§1) Fifteen 3-week-old SD rats (Japan SLC, Inc.) were acclimatized to the facility for one week and then divided into three groups of NF group (No Fiber diet), α-CD group (5.5% α-CD-containing NF diet) and LS group (5.5% LS-containing NF diet), each including five rats, and each rat was kept in one cage. In this test, the experiment was conducted in accordance with the Guidelines for Animal Experimentation of Kobe Women's University (Kobe, Japan), and approved by the animal ethics committee of the Graduate School of Science of Health and Nutrition at Kobe Women's University. The breeding environment was at 23±3° C. with a humidity of 60±10%, and cycles of 12-hour light/12-hour dark were provided. The rats were allowed to freely take diets and water and bread for eight weeks with experimental diets.
(§2) The diets were prepared in such a manner that the α-CD or LS content of dry experimental diet became 5.5%. After mixing each powder well, 100 ml of water was added, and thus mixed material was used as an experimental diet.
(§3) The rats of each group were fasted overnight eight weeks after starting breeding and then dissected under isoflurane anesthesia, and the cecum were taken out.
One hundred milligrams of cecal contents were measured and stirred after adding 1 ml of Elix water. After stirring, the resultant was centrifuged under the conditions of 10000 rpm for 30 min at 4° C., and the supernatant was used as a sample for IgA measurement. IgA amount of each sample was measured using Rat IgA ELISA Kit (Bethyl Laboratories, Inc.). Statistical analysis was conducted in the same manner as in 1) above.

Caco-2 cells [1] = experiment: Cytotoxicity of food emulsifiers alone (LDH activity); format: cell-based, human
Experimental: (§4) Caco-2 cells were inoculated to a 96-well plate at 10000 cells/well and cultured for three days to confluency. The Caco-2 cells were washed with PBS and then treated with a food emulsifier SE (250 μg/mL HLB16P, 1000 μg/mL HLB11S or 500 μg/mL […]) or monolaurin (500 μg/mL) and α-CD for an hour, and the LDH activities of each were measured. The treatment amounts of α-CD were 1/10, 1, 1.5, 2, 5 and 10 times the weight ratios for each SE. For monolaurin, the treatment amounts of α-CD were 1/10, 1, 1.5, 2, 5, 10 and 15 times the weight ratios.
For comparison, the LDH activities of Caco-2 cells which were treated with the SE (HLB16P (0-1000 μg/mL), HLB11S or HLB16S (each 0-2000 μg/mL)) or monolaurin (0-2500 μg/mL) alone for an hour were also measured.

[2] = pH analysis of cecal contents; format: in vivo, SD rats; conditions: 5.5% in NF diet, 8 weeks
Experimental: as §1, with “diets. […]” for “diets.”
(§5) A cut was made in the cecum taken out in 1 above, and the contents were squeezed out. The weights of the cecal contents were measured. […]
(§6) The cecal contents which were thawed for the microflora analysis were mixed and homogenized, and the analysis of the microflora by the T-RFLP method, measurement of the SCFAs amounts and the pH analysis were entrusted (TechnoSuruga Laboratory Co., Ltd.). The total SCFAs amounts were calculated by adding up the amounts of lactic acid, succinic acid, acetic acid, propionic acid and butyric acid.

mucin = experiment: Mucin measurement in cecal contents (Fecal mucin Assay Kit); format: in vivo, SD rats; conditions: 5.5% in NF diet, 8 weeks, FIG. 1
Experimental: as §1
The diets were prepared in such a manner that the α-CD or LS content of dry experimental diet became 5.5%. After mixing each powder well, 100 ml of water was added, and thus mixed material was used as an experimental diet. […]
The mucin amounts of the cecal contents were measured using Fecal mucin Assay Kit (Cosmo Bio Co., Ltd.), statistically analyzed by the Dunnett's test and the Student's t-test using Pharmaco Analyst I (Ver. 13.1.1; Three S Japan) and shown with the average values ±standard errors.

Feces amount measurement = format: in vivo, SD rats; conditions: 5.5% in NF diet, feces of three days from the 45th day
Experimental: as §1, §2
A drainboard was placed on the floor of each breeding cage 44 days after starting the test, and the feces that fell under the drainboard were collected every day for three days in succession after the 45th day. The weight (wet weight) of the collected feces (for the three days) was measured, and then after drying under reduced pressure, the feces weight after drying (dry weight) was measured.

[3] = Measurement of SCFAs amounts in cecal contents; format: in vivo, SD rats; conditions: 5.5% in NF diet, 8 weeks
Experimental: as §1, §2, §3
A cut was made in the cecum taken out in 1 above, and the contents were squeezed out. The weights of the cecal contents were measured. Immediately after the weight measurement, the contents were frozen with liquid nitrogen and stored at −80° C.
as §6

[4] = tested on: cecal microflora (Lactobacillales); experiment: Analysis of cecal microflora by the T-RFLP method; format: in vivo, SD rats; conditions: 5.5% in NF diet, 8 weeks; compared to the NF group or the LS group
Experimental: as §1, with “diets. […]” for “diets.”
as §5, §6

Caco-2 cells [5] = experiment: Effect on cytotoxicity of food emulsifiers (LDH activity); format: cell-based, human; conditions: one hour
Experimental: as §4

[6] = tested on: putrefactive products (indole, p-cresol and phenol); experiment: Putrefactive product measurement in cecal contents; format: in vivo, SD rats; conditions: 5.5% in NF diet, 8 weeks
Experimental: as §1, §2, §3
Analysis of the amounts of putrefactive products (indole, p-cresol and phenol) in cecal contents was entrusted (TechnoSuruga Laboratory Co., Ltd.).

Caco-2 cells [7] = experiment: Transepithelial electrical resistance decrease by food emulsifier; format: cell-based, human; conditions: HLB16P 62.5 μg/mL and α-CD 0-2000 μg/mL, 120 minutes, FIG. 7A
Experimental: Caco-2 cells were seeded to a Transwell insert at 0.4×10^6 cells/mL using Corning (registered trademark) BioCoat (trademark) intestinal epithelial cells (Caco-2) differentiation environment kit (Corning International K.K.), cultured for one day in a normal medium and cultured for three days in a differentiation medium. The Caco-2 cells were washed with PBS, then treated with HLB16P (62.5 μg/mL) and α-CD (0-2000 μg/mL) and incubated for 120 minutes. During the incubation, the transepithelial electrical resistance values were measured every 20 minutes by Millicell ERS-2 resistance measurement system (Nihon Millipore K.K.).
In the same manner, the transepithelial electrical resistance values were measured after treatment with HLB16P (62.5 μg/mL) and α-CD (2000 μg/mL), each water-soluble dietary fiber or oligosaccharide (2000 μg/mL).

[8] = compared to the LS group (p<0.01, Student's t-test)
[9] = compared to the LS group (p<0.05)
[10] = HLB11S 1000 μg/mL, weight ratio, FIG. 5B
[11] = HLB16P 250 μg/mL, weight ratio, FIG. 5A
[12] = HLB16S 500 μg/mL, weight ratio, FIG. 5C

For `OC[C@H]1O[C@@H](O[C@H]2[C@H](O)[C@@H](O)[C@@H](O[C@]3(CO)O[C@H](CO)[C@@H](O)[C@@H]3O)O[C@@H]2CO)[C@H](O)[C@@H](O)[C@H]1O` [LS, Lactosucrose, reference compound], which “IgA amount of cecal contents” value (IgA) is on record?
Its value is “increased significantly”.

What does the source list for `CCCCCCCCCCCC(=O)OCC(O)CO` (stereo not shown) [monolaurin, Monolaurin]?
concentration at which cytotoxicity to the Caco-2 cells was observed (Caco-2 cells [1]): ≥ 156.25 µg/mL; concentration at which cytotoxicity to the Caco-2 cells was very high (Caco-2 cells [1]): ≥ 625 µg/mL

For `OC[C@H]1O[C@@H]2O[C@H]3[C@H](O)[C@@H](O)[C@@H](O[C@H]4[C@H](O)[C@@H](O)[C@@H](O[C@H]5[C@H](O)[C@@H](O)[C@@H](O[C@H]6[C@H](O)[C@@H](O)[C@@H](O[C@H]7[C@H](O)[C@@H](O)[C@@H](O[C@H]1[C@H](O)[C@H]2O)O[C@@H]7CO)O[C@@H]6CO)O[C@@H]5CO)O[C@@H]4CO)O[C@@H]3CO` [α-CD], which “decrease in the cecal pH” value ([2]; compared to the LS group) is on record?
Its value is “remarkable”.

And the “cecal pH” value ([2]; compared to the NF group)?
Its value is “decreased significantly”.

What about the “IgA amount of cecal contents” value (IgA) of the same compound?
Its value is “increased significantly”.

And the IgA-increasing effect (IgA; α-CD group vs LS group, Student's t-test)?
The IgA-increasing effect was “comparable to that of LS”.

What about the “mucin amount of cecal contents” value (mucin; [8]) of the same compound?
The value was “increased significantly”.

What about the “mucin amount of cecal contents” value (mucin; compared to the NF group (p<0.01)) of the same compound?
The value was “increased significantly”.

And the “feces amount, dry weight” value (Feces amount measurement; [9])?
The value was “increased significantly”.

What about the “feces amount, wet weight” value (Feces amount measurement; [9]) of the same compound?
Its value is “increased significantly”.

And the “feces amount, wet weight” value (Feces amount measurement; compared to the NF group (p<0.01), FIG. 4A)?
Its value is “increased significantly”.

What about the “feces amount, dry weight” value (Feces amount measurement; compared to the NF group (p<0.01), FIG. 4B) of the same compound?
Its value is “increased significantly”.

And the “increase in amount of acetic acid” value ([3]; compared to the LS group)?
The value was “remarkable”.

And the “increase in amount of lactic acid” value ([3]; compared to the LS group)?
Its value is “remarkable”.

What about the “increase in amount of n-butyric acid” value ([3]; compared to the LS group) of the same compound?
Its value is “remarkable”.

What about the “increase in amount of propionic acid” value ([3]; compared to the LS group) of the same compound?
The value was “remarkable”.

And the “increase in amount of succinic acid” value ([3]; compared to the LS group)?
The value was “remarkable”.

What about the “increase in total SCFAs amount” value ([3]; compared to the LS group) of the same compound?
The value was “remarkable”.

What about the “amount of acetic acid in cecal contents” value ([3]; compared to the NF group) of the same compound?
Its value is “increased significantly”.

And the “amount of lactic acid in cecal contents” value ([3]; compared to the NF group)?
Its value is “increased significantly”.

And the “amount of n-butyric acid in cecal contents” value ([3]; compared to the NF group)?
The value was “increased significantly”.

And the “amount of propionic acid in cecal contents” value ([3]; compared to the NF group)?
The value was “increased significantly”.

And the “amount of succinic acid in cecal contents” value ([3]; compared to the NF group)?
The value was “increased significantly”.

And the “total SCFAs amount in cecal contents” value ([3]; compared to the NF group)?
The value was “increased significantly”.

And the “proportion of the Lactobacillales in cecal microflora” value [4]?
The value was “increased”.

And the “suppression of the cytotoxicity of the food emulsifier” value (Caco-2 cells [5]; 1000 μg/mL HLB11S and 1000 μg/mL test substance, LDH activity, FIG. 6)?
Its value is “exhibits such an effect”.

And the “amount of α-CD with which cytotoxicity of HLB11S disappeared completely” value (Caco-2 cells [5]; [10])?
Its value is 10 times the amount.

And the “amount of α-CD with which cytotoxicity of HLB11S was reduced significantly” value (Caco-2 cells [5]; [10])?
Its value is at least 0.1 times the amount.

And the “amount of α-CD with which cytotoxicity of HLB16P disappeared completely” value (Caco-2 cells [5]; [11])?
Its value is 10 times the amount.

And the “amount of α-CD with which cytotoxicity of HLB16P was reduced significantly” value (Caco-2 cells [5]; [11])?
Its value is at least 1.5 times the amount.

And the “amount of α-CD with which cytotoxicity of HLB16S disappeared completely” value (Caco-2 cells [5]; [12])?
Its value is 5 times the amount.

What about the “amount of α-CD with which cytotoxicity of HLB16S was reduced significantly” value (Caco-2 cells [5]; [12]) of the same compound?
Its value is at least 1.5 times the amount.

What about the “amount of α-CD with which cytotoxicity of monolaurin disappeared completely” value (Caco-2 cells [5]; monolaurin 500 μg/mL, weight ratio, FIG. 5D) of the same compound?
Its value is at least 10 times the amount.

And the “production of the putrefactive products” value [6, 8]?
Its value is “suppressed significantly”.

And the “amounts of the putrefactive products (indole, p-cresol and phenol) in cecal contents” value ([6]; compared to the NF group (p<0.01), FIG. 3)?
Its value is “decreased significantly”.

And the “suppression of the decrease in transepithelial electrical resistance value by the SE” value (Caco-2 cells [7])?
Its value is “suppressed by the addition of α-CD in a concentration-dependent manner”.
